From patent US10821115B2, “Compounds that inhibit Mcl-1 protein” (priority 2017, dated 2020)
Where two headings read alike, the source gives them in different places.

Legend:
[1] = molecular target: recombinant human Mcl-1 (residues 171-327) / Bim interaction (Homo sapiens (Human), UniProt Q07820); experiment: biochemical; format: binding; details: read-out: Mcl-1 HTRF IC50
[2] = test system: human multiple myeloma cell line, OPM-2; experiment: Cell viability assay (OPM-2 10 FBS), CellTiter-Glo; format: cell-based
In short: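 3000 cells/well, RPMI 1640 + 10% FBS; serial compound dilutions, 16 h, 37 °C/5% CO2.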

[3] = 0.1 nM Mcl-1(171-327), 0.05 nM biotin-Bim (51-76)
[4] = Homo sapiens, OPM-2, 16 h, read-out: OPM-2 10% FBS IC50 IP, OPM-2 cells, 10% FBS, 16 h incubation
[5] = read-out: OPM-2 10% FBS IC50 IP, OPM-2 cells, 10% FBS, 16 h, CellTiter-Glo
[6] = read-out: OPM-2 10% FBS IC50 IP, OPM-2 cells, 10% FBS, 16 h incubation
[7] = TR-FRET, Mcl-1(171-327) / biotin-Bim (51-76)
[8] = Homo sapiens, OPM-2, 16 h, read-out: OPM-2 10% FBS IC50 IP, OPM-2 cells, 10% FBS, 16 h, CellTiter-Glo

recombinant human Mcl-1 (residues 171-327) / Bim interaction, sequence (Q07820 171-327): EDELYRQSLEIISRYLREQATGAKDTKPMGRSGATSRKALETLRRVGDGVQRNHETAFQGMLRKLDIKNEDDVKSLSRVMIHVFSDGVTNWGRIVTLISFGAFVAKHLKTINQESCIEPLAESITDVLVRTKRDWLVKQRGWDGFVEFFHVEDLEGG

CO[C@@]1(CN2CCN3C(=O)OC[C@@H]3C2)/C=C/C[C@H](C)[C@@H](C)S(=O)(=O)NC(=O)c2ccc3c(c2)N(C[C@@H]2CC[C@H]21)C[C@@]1(CCCc2cc(Cl)ccc21)CO3 [Example 63, (1S,3′R,6′R,7′S,8′E,11′S,12′R)-6-chloro-7′-methoxy-11′,12′-dimethyl-7′-(((8aS)-3-oxotetrahydro[1,3]oxazolo[3,4-a]pyrazin-7(1H)-yl)methyl)-3,4-dihydro-2H,15′H-spiro[naphthalene-1,22′-[20]oxa[13]thia[1,14]diazatetracyclo [14.7.2.0~3,6~.0~19,24~]pentacosa[8,16,18,24]tetraen]-15′-one 13′,13′-dioxide] was tested, and the IC50 [1, 3] was 0.173 nM and the IC50 [2, 4] was 582 nM.
COC1CCN(C[C@]2(OC)/C=C/C[C@H](C)[C@@H](C)S(=O)(=O)NC(=O)c3ccc4c(c3)N(C[C@@H]3CC[C@H]32)C[C@@]2(CCCc3cc(Cl)ccc32)CO4)CC1 [Example 117, (1S,3′R,6′R,7′S,8′E,11′S,12′R)-6-chloro-7′-methoxy-7′-((4-methoxy-1-piperidinyl)methyl)-11′,12′-dimethyl-3,4-dihydro-2H,15′H-spiro[naphthalene-1,22′-[20]oxa[13]thia[1,14]diazatetracyclo [14.7.2.0~3,6~.0~19,24~]pentacosa[8,16,18,24]tetraen]-15′-one 13′,13′-dioxide] was tested, and the IC50 [1, 3] was 0.352 nM and the IC50 [2, 4] was 358 nM.
Work on COC[C@@H]1[C@@H](C)C/C=C/[C@@](CN2CCN(C3COC3)CC2)(OC)[C@@H]2CC[C@H]2CN2C[C@@]3(CCCc4cc(Cl)ccc43)COc3ccc(cc32)C(=O)NS1(=O)=O [Example 167, (1S,3′R,6′R,7′R,8′E,11′S,12′S)-6-chloro-7′-methoxy-12′-(methoxymethyl)-11′-methyl-7′-((4-(3-oxetanyl)-1-piperazinyl)methyl)-3,4-dihydro-2H,15′H-spiro[naphthalene-1,22′-[20]oxa[13]thia[1,14]diazatetracyclo [14.7.2.0~3,6~.0~19,24~]pentacosa[8,16,18,24]tetraen]-15′-one 13′,13′-dioxide] yielded an IC50 [1, 3] of 0.086 nM and an IC50 [2, 4] of 52 nM.
C[C@@H]1[C@@H](C)CCC[C@](O)(c2ncccn2)[C@@H]2CC[C@H]2CN2C[C@@]3(CCCc4cc(Cl)ccc43)COc3ccc(cc32)C(=O)NS1(=O)=O [Example 100279, (1S,3′R,6′R,7′R,11′S,12′R)-6-chloro-7′-hydroxy-11′,12′-dimethyl-7′-(2-pyrimidinyl)-3,4-dihydro-2H,15′H-spiro[naphthalene-1,22′-[20]oxa[13]thia[1,14]diazatetracyclo [14.7.2.0~3,6~.0~19,24~]pentacosa[16,18,24]trien]-15′-one 13′,13′-dioxide] showed an IC50 [1] of 0.777 nM and an IC50 [2, 5] of 3250 nM.
Work on CO[C@@]1(CN2CCN3CC[C@H](F)C[C@@H]3C2)/C=C/C[C@H](C)[C@@H](C)S(=O)(=O)NC(=O)c2ccc3c(c2)N(C[C@@H]2CC[C@H]21)C[C@@]1(CCCc2cc(Cl)ccc21)CO3 (single isomer, unassigned) [Example 284] yielded an IC50 [1, 3] of 0.288 nM and an IC50 [2, 6] of 230 nM.
Compound CC(C)CO[C@@]1(CN2CCN3CCCC[C@@H]3C2)/C=C/C[C@H](C)[C@@H](C)S(=O)(=O)NC(=O)c2ccc3c(c2)N(C[C@@H]2CC[C@H]21)C[C@@]1(CCCc2cc(Cl)ccc21)CO3 [Example 350, (15,3′R,6′R,7′S,8′E,11′S,12′R)-6-chloro-11′,12′-dimethyl-7′-(2-methylpropoxy)-7′-((9aR)-octahydro-2H-pyrido[1,2-a]pyrazin-2-ylmethyl)-3,4-dihydro-2H,15′H-spiro[naphthalene-1,22′-[20]oxa[13]thia[1,14]diazatetracyclo [14.7.2.0~3,6~.0~19,24~]pentacosa[8,16,18,24]tetraen]-15′-one 13′,13′-dioxide] has an IC50 [1, 3] of 12.3 nM and an IC50 [2, 4] of over 33300 nM.
In the case of CO[C@@]1(CN2CCN3CCC(F)(F)CC3C2)/C=C/C[C@H](C)[C@@H](C)S(=O)(=O)NC(=O)c2ccc3c(c2)N(C[C@@H]2CC[C@H]21)C[C@@]1(CCCc2cc(Cl)ccc21)CO3 (mixture of isomers) [Example 273], the IC50 [1, 3] is reported as 0.494 nM and the IC50 [2, 6] is reported as 501 nM.
Compound C[C@@H]1[C@@H](C)CCCC2(CN(S(C)(=O)=O)CCO2)[C@@H]2CC[C@H]2CN2C[C@@]3(CCCc4cc(Cl)ccc43)COc3ccc(cc32)C(=O)NS1(=O)=O (stereo partly shown) [Example 466] has an IC50 [1, 3] of 0.9 nM and an IC50 [2, 6] of 446 nM.
In the case of COCC(COC)N1CCN(C[C@@]2(OC)/C=C/C[C@H](C)[C@@H](C)S(=O)(=O)NC(=O)c3ccc4c(c3)N(C[C@@H]3CC[C@H]32)C[C@@]2(CCCc3cc(Cl)ccc32)CO4)CC1 [Example 304, (1S,3′R,6′R,7′R,8′E,11′S,12′R)-6-chloro-7′-methoxy-7′-((4-(2-methoxy-1-(methoxymethyl)ethyl)-1-piperazinyl)methyl)-11′,12′-dimethyl-3,4-dihydro-2H,15′H-spiro[naphthalene-1,22′-[20]oxa[13]thia[1,14]diazatetracyclo [14.7.2.0~3,6~.0~19,24~]pentacosa[8,16,18,24]tetraen]-15′-one 13′,13′-dioxide], the IC50 [1, 3] is reported as 0.226 nM and the IC50 [2, 4] is reported as 239 nM.
In the case of COCC[C@@H]1[C@@H](C)C/C=C/[C@@](C=O)(OC)[C@@H]2CC[C@H]2CN2C[C@@]3(CCCc4cc(Cl)ccc43)COc3ccc(cc32)C(=O)NS1(=O)=O [Example 100571, (1S,3′R,6′R,7′R,8′E,11′S,12′R)-6-chloro-7′-methoxy-12′-(2-methoxyethyl)-11′-methyl-15′-oxo-3,4-dihydro-2H-spiro[naphthalene-1,22′-[20]oxa[13]thia[1,14]diazatetracyclo [14.7.2.0~3,6~.0~19,24~]pentacosa[8,16,18,24]tetraene]-7′-carbaldehyde 13′,13′-dioxide], the IC50 [1, 7] is reported as 0.076 nM and the IC50 [2, 8] is reported as 922 nM.
For CC[C@]1(O)/C=C/C[C@H](C)[C@@H](C)S(=O)(=O)NC(=O)c2ccc3c(c2)N(C[C@@H]2CC[C@H]21)C[C@@]1(CCCc2cc(Cl)ccc21)CO3 [Example 100207, (1S,3′R,6′R,7′S,8′E,11′S,12′R)-6-chloro-7′-ethyl-7′-hydroxy-11′,12′-dimethyl-3,4-dihydro-2H,15′H-spiro[naphthalene-1,22′-[20]oxa[13]thia[1,14]diazatetracyclo [14.7.2.0~3,6~.0~19,24~]pentacosa[8,16,18,24]tetraen]-15′-one 13′,13′-dioxide], the IC50 [1, 7] was 0.141 nM and the IC50 [2, 8] was 215 nM.
For C[C@@H]1[C@@H](C)C/C=C/[C@](O)(Cc2nccs2)[C@@H]2CC[C@H]2CN2C[C@@]3(CCCc4cc(Cl)ccc43)COc3ccc(cc32)C(=O)NS1(=O)=O [Example 100246, (1S,3′R,6′R,7′R,8′E,11′S,12′R)-6-chloro-7′-hydroxy-11′,12′-dimethyl-7′-(1,3-thiazol-2-ylmethyl)-3,4-dihydro-2H,15′H-spiro[naphthalene-1,22′-[20]oxa[13]thia[1,14]diazatetracyclo [14.7.2.0~3,6~.0~19,24~]pentacosa[8,16,18,24]tetraen]-15′-one 13′,13′-dioxide], the IC50 [1] was 0.326 nM and the IC50 [2, 5] was 114 nM.
CO[C@]1(C)CCC[C@H](C)[C@@H](C)S(=O)(=O)NC(=O)c2ccc3c(c2)N(C[C@@H]2CC[C@H]21)C[C@@]1(CCCc2cc(Cl)ccc21)CO3 (single isomer, unassigned) [Example 100211] showed an IC50 [1, 7] of 1.44 nM and an IC50 [2, 5] of 4780 nM.
Compound COC[C@]1(O)/C=C/C[C@H](C)[C@@H](C)S(=O)(=O)NC(=O)c2ccc3c(c2)N(C[C@@H]2CC[C@H]21)C[C@@]1(CCCc2cc(Cl)ccc21)CO3 [Example 100378, (1S,3′R,6′R,7′S,8′E,11′S,12′R)-6-chloro-7′-hydroxy-7′-(methoxymethyl)-11′,12′-dimethyl-3,4-dihydro-2H,15′H-spiro[naphthalene-1,22′-[20]oxa[13]thia[1,14]diazatetracyclo [14.7.2.0~3,6~.0~19,24~]pentacosa[8,16,18,24]tetraen]-15′-one 13′,13′-dioxide] has an IC50 [1, 7] of 0.037 nM and an IC50 [2, 8] of 111 nM.
Work on C[C@@H]1[C@@H](C)C[C@H]2C=CC[C@](O)(C2)[C@@H]2CC[C@H]2CN2C[C@@]3(CCCc4cc(Cl)ccc43)COc3ccc(cc32)C(=O)NS1(=O)=O [Example 100057, (1S,3′R,6′R,7′S,11′R,13′S,14′R)-6-chloro-7′-hydroxy-13′,14′-dimethyl-3,4-dihydro-2H,17′H-spiro[naphthalene-1,24′-[22]oxa[15]thia[1,16]diazapentacyclo [16.7.2.1~7,11~.0~3,6~.0~21,26~]octacosa [9,18,20,26]tetraen]-17′-one 15′,15′-dioxide] yielded an IC50 [1, 7] of 0.568 nM and an IC50 [2, 8] of 2600 nM.
CO[C@@]1(CN2CCN(C3CCC3)CC2)/C=C/C[C@H](C)[C@@H](C)S(=O)(=O)NC(=O)c2ccc3c(c2)N(C[C@@H]2CC[C@H]21)C[C@@]1(CCCc2cc(Cl)ccc21)CO3 [Example 281, (1S,3′R,6′R,7′S,8′E,11′S,12′R)-6-chloro-7′-((4-cyclobutyl-1-piperazinyl)methyl)-7′-methoxy-11′,12′-dimethyl-3,4-dihydro-2H,15′H-spiro[naphthalene-1,22′-[20]oxa[13]thia[1,14]diazatetracyclo [14.7.2.0~3,6~.0~19,24~]pentacosa[8,16,18,24]tetraen]-15′-one 13′,13′-dioxide] was tested, and the IC50 [1, 3] was 0.181 nM and the IC50 [2, 4] was 152 nM.
With CO[C@@]1(CN2CCN3CCN(C(C)C)C[C@@H]3C2)/C=C/C[C@H](C)[C@@H](C)S(=O)(=O)NC(=O)c2ccc3c(c2)N(C[C@@H]2CC[C@H]21)C[C@@]1(CCCc2cc(Cl)ccc21)CO3 (single isomer, unassigned) [Example 240] the IC50 [1, 3] was 0.128 nM and the IC50 [2, 6] was 141 nM.
